Laboratory results: patent US8853203B2, “Diazepinone derivatives” (Novartis AG, priority 2012, dated 2014)

Key:
human mGluR5a receptors = human mGluR5a receptors (Homo sapiens (Human), UniProt P41594); assay: inhibition of glutamate-induced elevation of intracellular calcium in L(tk-) cells expressing human mGluR5a; type: cell-based; details: for IC50: glutamate-induced intracellular calcium elevation, L(tk-) cells expressing human mGluR5a, read-out: mGluR5 IC50; for inhibition at 2 µM: LTK, read-out: mGluR5 % inhibition at 2 μM
Summary of the method: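 Compounds tested for inhibition of the glutamate-induced rise in intracellular calcium concentration in L(tk-) cells stably expressing human mGluR5a.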

human mGluR1 = human mGluR1 (Homo sapiens (Human), UniProt Q13255); assay: mGluR1 antagonism, L-glutamate induced intracellular calcium increase (FLIPR) in CHO cells stably expressing human mGluR1; type: cell-based; details: L-glutamate induced intracellular calcium, CHO cells expressing human mGluR1, FLIPR
human mGluR1, sequence (Q13255 19-1194): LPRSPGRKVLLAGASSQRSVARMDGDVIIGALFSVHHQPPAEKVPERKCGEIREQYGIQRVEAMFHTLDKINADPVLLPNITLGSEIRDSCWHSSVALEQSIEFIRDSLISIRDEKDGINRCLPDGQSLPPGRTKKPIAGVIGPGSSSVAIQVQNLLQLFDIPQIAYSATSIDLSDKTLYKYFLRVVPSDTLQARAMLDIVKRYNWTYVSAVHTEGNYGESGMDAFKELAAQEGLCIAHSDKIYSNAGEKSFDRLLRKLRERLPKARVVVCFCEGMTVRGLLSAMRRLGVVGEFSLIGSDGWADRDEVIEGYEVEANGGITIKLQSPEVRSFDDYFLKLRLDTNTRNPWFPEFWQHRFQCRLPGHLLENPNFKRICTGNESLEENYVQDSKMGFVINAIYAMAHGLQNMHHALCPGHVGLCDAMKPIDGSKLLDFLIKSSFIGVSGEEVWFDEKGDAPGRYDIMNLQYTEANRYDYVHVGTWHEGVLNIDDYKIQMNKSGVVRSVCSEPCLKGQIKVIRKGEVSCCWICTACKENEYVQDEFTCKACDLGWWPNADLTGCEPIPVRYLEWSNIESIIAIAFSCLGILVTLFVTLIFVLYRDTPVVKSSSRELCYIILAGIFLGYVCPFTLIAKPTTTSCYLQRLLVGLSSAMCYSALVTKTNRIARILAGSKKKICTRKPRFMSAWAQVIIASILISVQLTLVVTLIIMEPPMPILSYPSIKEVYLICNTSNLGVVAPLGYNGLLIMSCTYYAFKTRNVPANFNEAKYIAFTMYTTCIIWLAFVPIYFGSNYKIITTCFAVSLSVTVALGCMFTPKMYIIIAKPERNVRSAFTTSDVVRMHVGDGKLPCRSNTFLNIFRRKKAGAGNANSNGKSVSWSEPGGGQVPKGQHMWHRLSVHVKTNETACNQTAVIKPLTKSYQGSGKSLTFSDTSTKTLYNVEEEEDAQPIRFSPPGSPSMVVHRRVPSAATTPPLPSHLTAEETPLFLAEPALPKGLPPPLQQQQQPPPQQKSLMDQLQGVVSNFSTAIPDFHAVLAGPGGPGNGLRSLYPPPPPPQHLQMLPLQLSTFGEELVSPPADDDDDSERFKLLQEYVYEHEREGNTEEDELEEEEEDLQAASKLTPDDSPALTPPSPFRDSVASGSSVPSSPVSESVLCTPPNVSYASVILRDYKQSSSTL

human mGluR5a receptors, sequence (P41594 other isoform, or with tags, fused parts or gaps): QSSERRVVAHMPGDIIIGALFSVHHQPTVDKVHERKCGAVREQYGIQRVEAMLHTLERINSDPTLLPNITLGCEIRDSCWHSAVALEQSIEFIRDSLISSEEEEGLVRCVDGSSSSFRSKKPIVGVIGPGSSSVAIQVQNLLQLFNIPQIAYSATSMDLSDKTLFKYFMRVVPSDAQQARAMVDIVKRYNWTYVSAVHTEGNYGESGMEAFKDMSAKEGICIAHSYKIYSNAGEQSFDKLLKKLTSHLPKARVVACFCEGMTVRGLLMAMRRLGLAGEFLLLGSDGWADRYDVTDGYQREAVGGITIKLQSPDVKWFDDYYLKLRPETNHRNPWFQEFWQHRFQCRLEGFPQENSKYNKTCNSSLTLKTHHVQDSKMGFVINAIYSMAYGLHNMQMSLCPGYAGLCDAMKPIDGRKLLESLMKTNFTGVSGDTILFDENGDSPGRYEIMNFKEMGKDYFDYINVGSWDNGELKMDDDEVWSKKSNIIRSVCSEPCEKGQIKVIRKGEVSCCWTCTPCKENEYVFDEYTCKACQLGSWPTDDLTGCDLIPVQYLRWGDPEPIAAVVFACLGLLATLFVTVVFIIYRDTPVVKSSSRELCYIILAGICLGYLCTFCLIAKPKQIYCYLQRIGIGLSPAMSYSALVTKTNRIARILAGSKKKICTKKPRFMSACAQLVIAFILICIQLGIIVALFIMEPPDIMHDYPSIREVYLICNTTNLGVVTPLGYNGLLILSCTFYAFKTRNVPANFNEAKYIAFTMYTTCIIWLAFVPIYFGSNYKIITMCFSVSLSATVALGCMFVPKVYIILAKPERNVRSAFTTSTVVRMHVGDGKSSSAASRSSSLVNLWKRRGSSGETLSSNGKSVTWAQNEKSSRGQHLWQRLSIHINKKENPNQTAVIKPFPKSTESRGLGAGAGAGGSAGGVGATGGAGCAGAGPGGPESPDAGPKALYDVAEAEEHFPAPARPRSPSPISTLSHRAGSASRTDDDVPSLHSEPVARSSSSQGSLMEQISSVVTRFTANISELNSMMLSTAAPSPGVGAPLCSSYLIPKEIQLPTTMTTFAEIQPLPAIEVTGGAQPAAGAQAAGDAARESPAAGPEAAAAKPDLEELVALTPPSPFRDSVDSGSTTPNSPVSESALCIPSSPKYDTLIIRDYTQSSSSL

## Cc1ncn(C2=NCC(=O)N3CCc4c(ccc(F)c4-c4ccc(F)nc4)C3=C2)n1 [Example 99o, 10-fluoro-9-(6-fluoropyridin-3-yl)-2-(3-methyl-1H-1,2,4-triazol-1-yl)-7,8-dihydro-[1,4]diazepino[7,1-a]isoquinolin-5(4H)-one]
Human mGluR5a receptors
  IC50: 50 nM
Human mGluR1
  IC50: > 10000 nM

## COCc1ncn(C2=NCC(=O)N3CCc4c(ccc(F)c4C4CC4)C3=C2)n1 [Example 99p, 9-cyclopropyl-10-fluoro-2-(3-(methoxymethyl)-1H-1,2,4-triazol-1-yl)-7,8-dihydro-[1,4]diazepino[7,1-a]isoquinolin-5(4H)-one]
Human mGluR5a receptors
  IC50: 2 nM
Human mGluR1
  IC50: 814 nM

## O=C1CN=C(n2cnc(C3CC3)n2)C=C2c3ccc(F)c(-c4cccnc4F)c3CCN12 [Example 99q, 2-(3-cyclopropyl-1H-1,2,4-triazol-1-yl)-10-fluoro-9-(2-fluoropyridin-3-yl)-7,8-dihydro-[1,4]diazepino[7,1-a]isoquinolin-5(4H)-one]
Human mGluR5a receptors
  IC50: 88 nM
Human mGluR1
  IC50: > 6000 nM

## Cc1ncn(C2=NCC(=O)N3CCc4c(ccc(F)c4-c4cccnc4F)C3=C2)n1 [Example 99r, 10-fluoro-9-(2-fluoropyridin-3-yl)-2-(3-methyl-1H-1,2,4-triazol-1-yl)-7,8-dihydro-[1,4]diazepino[7,1-a]isoquinolin-5(4H)-one]
Human mGluR5a receptors
  IC50: 136 nM
Human mGluR1
  IC50: > 10000 nM

## Cc1cn(C2=NCC(=O)N3CCc4c(ccc(F)c4-c4cccnc4F)C3=C2)cn1 [Example 99s, 10-fluoro-9-(2-fluoropyridin-3-yl)-2-(4-methyl-1H-imidazol-1-yl)-7,8-dihydro-[1,4]diazepino[7,1-a]isoquinolin-5(4H)-one]
Human mGluR5a receptors
  IC50: 153 nM
Human mGluR1
  IC50: > 10000 nM

## O=C1CN=C(n2cnc(C3CC3)c2)C=C2c3cccc(-c4ccno4)c3CCN12 [Example 100, 2-(4-cyclopropyl-1H-imidazol-1-yl)-9-(isoxazol-5-yl)-7,8-dihydro-[1,4]diazepino[7,1-a]isoquinolin-5(4H)-one]
Human mGluR5a receptors
  IC50: 19 nM
Human mGluR1
  IC50: 560 nM

## COCc1cn(C2=NCC(=O)N3CCc4c(cccc4-c4cscn4)C3=C2)cn1 [Example 101, 2-(4-(methoxymethyl)-1H-imidazol-1-yl)-9-(thiazol-4-yl)-7,8-dihydro-[1,4]diazepino[7,1-a]isoquinolin-5(4H)-one]
Human mGluR5a receptors
  IC50: 26 nM
Human mGluR1
  IC50: > 10000 nM

## CCc1ncn(C2=NCC(=O)N3CCc4c(cccc4-c4ccc(F)nc4)C3=C2)n1 [Example 102, 2-(3-ethyl-1H-1,2,4-triazol-1-yl)-9-(6-fluoropyridin-3-yl)-7,8-dihydro-[1,4]diazepino[7,1-a]isoquinolin-5(4H)-one]
Human mGluR5a receptors
  IC50: 16 nM
Human mGluR1
  IC50: > 10000 nM

## Cc1cc(-c2cccc3c2CCN2C(=O)CN=C(n4cnc(C5CC5)c4)C=C32)sn1 [Example 103, 2-(4-cyclopropyl-1H-imidazol-1-yl)-9-(3-methylisothiazol-5-yl)-7,8-dihydro-[1,4]diazepino[7,1-a]isoquinolin-5(4H)-one]
Human mGluR5a receptors
  IC50: 18 nM
Human mGluR1
  IC50: > 10000 nM

## O=C1CN=C(n2cnc(C3CC3)c2)C=C2c3cccc(-c4ncco4)c3CCN12 [Example 104, 2-(4-cyclopropyl-1H-imidazol-1-yl)-9-(oxazol-2-yl)-7,8-dihydro-[1,4]diazepino[7,1-a]isoquinolin-5(4H)-one]
Human mGluR5a receptors
  IC50: 7 nM
Human mGluR1
  IC50: 1300 nM

## C#Cc1cn(C2=NCC(=O)N3CCc4c(cccc4-c4cscn4)C3=C2)cn1 [Example 105, 2-(4-ethynyl-1H-imidazol-1-yl)-9-(thiazol-4-yl)-7,8-dihydro-[1,4]diazepino[7,1-a]isoquinolin-5(4H)-one]
Human mGluR5a receptors
  IC50: 122 nM
Human mGluR1
  IC50: > 10000 nM

## O=C1CN=C(n2cnc(-c3ncco3)c2)C=C2c3cccc(-c4cccnc4F)c3CCN12 [Example 106, 9-(2-fluoropyridin-3-yl)-2-(4-(oxazol-2-yl)-1H-imidazol-1-yl)-7,8-dihydro-[1,4]diazepino[7,1-a]isoquinolin-5(4H)-one]
Human mGluR5a receptors
  IC50: 182 nM
Human mGluR1
  IC50: > 10000 nM

## COC1(c2cn(C3=NCC(=O)N4CCc5c(cccc5-c5ccc(F)nc5)C4=C3)cn2)CC1 [Example 106a, 9-(6-fluoropyridin-3-yl)-2-(4-(1-methoxycyclopropyl)-1H-imidazol-1-yl)-7,8-dihydro-[1,4]diazepino[7,1-a]isoquinolin-5(4H)-one]
Human mGluR5a receptors
  IC50: 68 nM
Human mGluR1
  IC50: > 10000 nM

## Cc1cn(C2=NCC(=O)N3CCc4c(cccc4-c4cnccn4)C3=C2)cn1 [Example 106b, 2-(4-methyl-1H-imidazol-1-yl)-9-(pyrazin-2-yl)-7,8-dihydro-[1,4]diazepino[7,1-a]isoquinolin-5(4H)-one]
Human mGluR5a receptors
  IC50: 168 nM
Human mGluR1
  IC50: 7330 nM

## O=C1CN=C(n2cnc(C3(O)COC3)c2)C=C2c3cccc(-c4ccc(F)nc4)c3CCN12 [Example 106c, 9-(6-fluoropyridin-3-yl)-2-(4-(3-hydroxyoxetan-3-yl)-1H-imidazol-1-yl)-7,8-dihydro-[1,4]diazepino[7,1-a]isoquinolin-5(4H)-one]
Human mGluR5a receptors
  IC50: 1090 nM
Human mGluR1
  IC50: > 10000 nM

## CC1=C2c3cccc(-c4cc(C)no4)c3CCN2C(=O)CN=C1n1cnc(C2CC2)c1 [Example 107, 2-(4-cyclopropyl-1H-imidazol-1-yl)-1-methyl-9-(3-methylisoxazol-5-yl)-7,8-dihydro-[1,4]diazepino[7,1-a]isoquinolin-5(4H)-one]
Human mGluR5a receptors
  IC50: 835 nM
Human mGluR1
  IC50: > 10000 nM

## Cc1nc(-c2cccc3c2CCN2C(=O)CN=C(n4cnc(C5CC5)c4)C=C32)co1 [Example 108, 2-(4-cyclopropyl-1H-imidazol-1-yl)-9-(2-methyloxazol-4-yl)-7,8-dihydro-[1,4]diazepino[7,1-a]isoquinolin-5(4H)-one]
Human mGluR5a receptors
  IC50: 18 nM
Human mGluR1
  IC50: 3300 nM

## Cc1nc(-c2cccc3c2CCN2C(=O)CN=C(n4cnc(C5CC5)n4)C=C32)co1 [Example 108a, 2-(3-cyclopropyl-1H-1,2,4-triazol-1-yl)-9-(2-methyloxazol-4-yl)-7,8-dihydro-[1,4]diazepino[7,1-a]isoquinolin-5(4H)-one]
Human mGluR5a receptors
  IC50: 91 nM
Human mGluR1
  IC50: > 10000 nM

## Cc1cn(C2=NCC(=O)N3CCc4c(cccc4-c4coc(C)n4)C3=C2)cn1 [Example 108c, 2-(4-methyl-1H-imidazol-1-yl)-9-(2-methyloxazol-4-yl)-7,8-dihydro-[1,4]diazepino[7,1-a]isoquinolin-5(4H)-one]
Human mGluR5a receptors
  IC50: 115 nM
Human mGluR1
  IC50: > 10000 nM

## O=C1CN=C(n2cnc(C3CC3)c2)C=C2c3cccc(-c4cnco4)c3CCN12 [Example 109, 2-(4-cyclopropyl-1H-imidazol-1-yl)-9-(oxazol-5-yl)-7,8-dihydro-[1,4]diazepino[7,1-a]isoquinolin-5(4H)-one]
Human mGluR5a receptors
  IC50: 10 nM
Human mGluR1
  IC50: 1800 nM

## O=C1CN=C(n2cnc(C3CC3)c2)C=C2c3ccnc(-c4ccc(F)nc4)c3CCN12 [Example 110, 2-(4-cyclopropyl-1H-imidazol-1-yl)-9-(6-fluoropyridin-3-yl)-7,8-dihydro-[1,4]diazepino[7,1-a][2,6]naphthyridin-5(4H)-one]
Human mGluR5a receptors
  IC50: 270 nM
Human mGluR1
  IC50: > 10000 nM

## O=C1CN=C(n2cnc(C3CC3)c2)C=C2c3ccnc(C4CC4)c3CCN12 [Example 110a, 9-cyclopropyl-2-(4-cyclopropyl-1H-imidazol-1-yl)-7,8-dihydro-[1,4]diazepino[7,1-a][2,6]naphthyridin-5(4H)-one]
Human mGluR5a receptors
  IC50: 328 nM
Human mGluR1
  IC50: > 2000 nM

## O=C1CN=C(n2cnc(C3CC3)n2)C=C2c3ccnc(C4CC4)c3CCN12 [Example 110b, 9-cyclopropyl-2-(3-cyclopropyl-1H-1,2,4-triazol-1-yl)-7,8-dihydro-[1,4]diazepino[7,1-a][2,6]naphthyridin-5(4H)-one]
Human mGluR5a receptors
  IC50: 758 nM
Human mGluR1
  IC50: > 10000 nM

## CO[C@H](C)c1cn(C2=NCC(=O)N3CCc4c(ccnc4C4CC4)C3=C2)cn1 [Example 110c, (R)-9-cyclopropyl-2-(4-(1-methoxyethyl)-1H-imidazol-1-yl)-7,8-dihydro-[1,4]diazepino[7,1-a][2,6]naphthyridin-5(4H)-one]
Human mGluR5a receptors
  inhibition at 2 µM: 72%
Human mGluR1
  IC50: > 10000 nM

## O=C1CN=C(n2cnc(C(F)F)c2)C=C2c3ccnc(C4CC4)c3CCN12 [Example 110d, 9-cyclopropyl-2-(4-(difluoromethyl)-1H-imidazol-1-yl)-7,8-dihydro-[1,4]diazepino[7,1-a][2,6]naphthyridin-5(4H)-one]
Human mGluR5a receptors
  inhibition at 2 µM: 57%
Human mGluR1
  IC50: > 10000 nM

## CC(C)(C)c1cn(C2=NCC(=O)N3CCc4c(cccc4C4CCCO4)C3=C2)cn1 (stereo not drawn) [Example 112, 2-(4-(tert-butyl)-1H-imidazol-1-yl)-9-(tetrahydrofuran-2-yl)-7,8-dihydro-[1,4]diazepino[7,1-a]isoquinolin-5(4H)-one]
Human mGluR5a receptors
  IC50: 515 nM
Human mGluR1
  IC50: > 10000 nM

## CCc1cn(C2=NCC(=O)N3CCc4c(cccc4C4(F)CCC4)C3=C2)cn1 [Example 113, 2-(4-ethyl-1H-imidazol-1-yl)-9-(1-fluorocyclobutyl)-7,8-dihydro-[1,4]diazepino[7,1-a]isoquinolin-5(4H)-one]
Human mGluR5a receptors
  IC50: 120 nM
Human mGluR1
  IC50: 2300 nM

## CCc1cn(C2=NCC(=O)N3CCc4c(cccc4C4(F)COC4)C3=C2)cn1 [Example 114, 2-(4-ethyl-1H-imidazol-1-yl)-9-(3-fluorooxetan-3-yl)-7,8-dihydro-[1,4]diazepino[7,1-a]isoquinolin-5(4H)-one]
Human mGluR5a receptors
  IC50: 1600 nM
Human mGluR1
  IC50: > 10000 nM

## CC(=O)c1cccc2c1CCN1C(=O)CN=C(n3cnc(C)c3)C=C21 [Example 116, 9-acetyl-2-(4-methyl-1H-imidazol-1-yl)-7,8-dihydro-[1,4]diazepino[7,1-a]isoquinolin-5(4H)-one]
Human mGluR5a receptors
  IC50: 410 nM
Human mGluR1
  IC50: > 10000 nM

## CC(=O)c1cccc2c1CCN1C(=O)CN=C(n3cnc(C4CCC4)c3)C=C21 [Example 117, 9-acetyl-2-(4-cyclobutyl-1H-imidazol-1-yl)-7,8-dihydro-[1,4]diazepino[7,1-a]isoquinolin-5(4H)-one]
Human mGluR5a receptors
  IC50: 35 nM
Human mGluR1
  IC50: 660 nM
